This note sets out measurements from ChEMBL document CHEMBL1132210, “Ligands for the tyrosine kinase p56lck SH2 domain: discovery of potent dipeptide derivatives with monocharged, nonhydrolyzable phosphate replacements” (J Med Chem, 1999).

Non-standard residues stand in square brackets, D forms with d. Residues, ends and D or L forms follow the SMILES beside them. Phe(4-CH2COOH) = N[C@@H](Cc1ccc(CC(=O)O)cc1)C(=O)O

In this assay the target is Tyrosine-protein kinase Lck (Homo sapiens, UniProt P06239). Description: Binding affinity towards p56 Lck tyrosine kinase SH2 domain was determined by biological assay.
Chain of Tyrosine-protein kinase Lck (P06239 whole entry, the tested form may be a part): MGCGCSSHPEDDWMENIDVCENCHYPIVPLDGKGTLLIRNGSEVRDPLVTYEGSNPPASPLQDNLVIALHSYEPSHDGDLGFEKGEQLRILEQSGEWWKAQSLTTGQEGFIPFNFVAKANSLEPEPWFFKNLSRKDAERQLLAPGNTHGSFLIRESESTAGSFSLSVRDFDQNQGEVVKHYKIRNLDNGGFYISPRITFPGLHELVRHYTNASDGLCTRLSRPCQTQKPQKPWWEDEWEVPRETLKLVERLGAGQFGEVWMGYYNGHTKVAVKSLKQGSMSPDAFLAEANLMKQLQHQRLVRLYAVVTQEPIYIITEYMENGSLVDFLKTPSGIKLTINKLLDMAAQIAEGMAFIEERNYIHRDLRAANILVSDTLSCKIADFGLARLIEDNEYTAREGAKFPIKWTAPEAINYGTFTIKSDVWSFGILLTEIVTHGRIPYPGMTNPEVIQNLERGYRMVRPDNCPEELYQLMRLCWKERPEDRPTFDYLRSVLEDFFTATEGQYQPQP
Take `COc1ccc(CNC(=O)[C@H](CCC(=O)O)NC(=O)[C@H](Cc2ccc(NC(=O)C(=O)O)cc2)NC(=O)Cc2ccc3ccccc3c2)cc1`: the dissociation constant Kd came out at 3 µM. This counts as single-digit micromolar. With `COc1ccc(CNC(=O)[C@H](CCC(=O)O)NC(=O)[C@H](Cc2ccc(NC(=O)C(=O)O)cc2)NC(=O)CCc2ccccc2)cc1`, the equilibrium dissociation constant (Kd) is 13 µM.

`COc1ccc(CNC(=O)[C@H](CCC(=O)O)NC(=O)[C@H](Cc2ccc(C(O)C(=O)O)cc2)NC(=O)Cc2cccc3ccccc23)cc1` (stereo partly specified): the equilibrium dissociation constant (Kd) came out at 2 µM. This Kd is about 6.5-fold lower than that of the compound before. Then `COc1ccc(CNC(=O)[C@H](CCC(=O)O)NC(=O)[C@H](Cc2ccc(C(F)(F)C(=O)O)cc2)NC(C)=O)cc1`, with 166 µM. For the compound `COc1ccc(CNC(=O)[C@H](CCC(=O)O)NC(=O)[C@H](Cc2ccc(CS(=O)(=O)O)cc2)NC(C)=O)cc1`, the equilibrium dissociation constant (Kd) stood at 25 µM. Compared with the last compound, the Kd is about 6.6-fold lower.

The compound `COc1ccc(CNC(=O)[C@H](CCC(=O)O)NC(=O)[C@H](Cc2ccc(C(=O)C(=O)O)cc2)NC(C)=O)cc1` displayed a Kd of 65 µM. Then `COc1ccc(CNC(=O)[C@H](CCC(=O)O)NC(=O)[C@H](Cc2ccc(CCC(=O)O)cc2)NC(C)=O)cc1`, with 184 µM. With `COc1ccc(CNC(=O)[C@H](CCC(=O)O)NC(=O)[C@H](Cc2ccc(NC(=O)C(=O)O)cc2)NC(=O)Cc2ccccc2)cc1`, the dissociation constant Kd is 17 µM.

`COc1ccc(CNC(=O)[C@H](CCC(=O)O)NC(=O)[C@H](Cc2ccc(C(O)C(=O)O)cc2)NC(C)=O)cc1` (stereo partly specified) came in with a Kd of 15 µM. Regarding `COc1ccc(CNC(=O)[C@H](CCC(=O)O)NC(=O)[C@H](Cc2ccc(NC(=O)C(=O)O)cc2)NC(=O)c2ccccc2)cc1`, the Kd came out at 32 µM. Then `COc1ccc(CNC(=O)[C@H](CCC(=O)O)NC(=O)[C@H](Cc2ccc(CC(=O)O)cc2)NC(C)=O)cc1`, with 50 µM; and `COc1ccc(CNC(=O)[C@H](CCC(=O)O)NC(=O)[C@H](Cc2ccc(CS(=O)(=O)O)cc2)NC(=O)Cc2cccc3ccccc23)cc1`, with 4 µM; and `COc1ccc(CNC(=O)[C@H](CCC(=O)O)NC(=O)[C@H](Cc2ccc(CC(=O)O)cc2)NC(=O)Cc2cccc3ccccc23)cc1`, with 5 µM. Regarding `COc1ccc(CNC(=O)[C@H](CCC(=O)O)NC(=O)[C@H](Cc2ccc(OP(=O)(O)O)cc2)NC(=O)Cc2cccc3ccccc23)cc1`, the equilibrium dissociation constant (Kd) was found to be 0.04 µM. `COc1ccc(CNC(=O)[C@H](CCC(=O)O)NC(=O)[C@H](Cc2ccc(NC(=O)C(=O)O)cc2)NC(C)=O)cc1` gave an equilibrium dissociation constant (Kd) of 42 µM. For `CC[C@H](C)[C@H](NC(=O)[C@H](CCC(=O)O)NC(=O)[C@H](CCC(=O)O)NC(=O)[C@H](Cc1ccc(CC(=O)O)cc1)NC(C)=O)C(=O)O` (Ac-[Phe(4-CH2COOH)]EEI-OH) the value was 42 µM.
